Measured values as given in US8741807B2 (priority 2011, dated 2014).
Like-named read-outs stand apart in the source and are kept apart here.

Tested on: rice blast fungus (Kyu89-246, MAFF101506, race 003.0)
Assay type: in vivo
Settings: inoculated next day, 6 days after inoculation, five-leaf stage

Row | SMILES | resistance to rice blast (number of lesions) (sprayed at 1 mM) | resistance to rice blast (number of lesions) (sprayed at 5 mM)
1 | NCCCCNCCCNC(=O)CCCCCCCCCCCO [YIS12OH1N, 1-N-(12-hydroroxylauroyl)-spermidine] | provided the resistance | showed resistance to rice blast
2 | NCCCCN(CCCN)C(=O)CCCCCCCCCCCO [YIS12OH4N, ^4N-(12-hydroroxylauroyl)-spermidine] |  | showed resistance to rice blast
